Where “and” joins values, the source holds several entries; their conditions need not be identical. Equal values may be shown once. Read-outs that look alike come from different tables or passages of the source.
Legend:
[1] = molecular target: HBV core protein (pCDNA3-Core, Y118 wild-type) in Huh-7 cells (Hepatitis B virus genotype C, UniProt P0C6H6); experiment: cell-based; type: cell-based; details: for activity at 0.1 µM: Huh-7, Y118, 0.1 μM; for activity at 0.5 µM: Huh-7, Y118, 0.5 μM; for activity at 1 µM: Huh-7, Y118, 1 μM; for activity at 5 µM: Huh-7, Y118, 5 μM; for activity at 10 µM: Huh-7, Y118, 10 μM; for HBV capsid assembly inhibitory activity in vivo (Fig. 3d): Huh-7, pCDNA3-Core
[2] = molecular target: T1, Cp149 (truncated HBV core protein) (Hepatitis B virus genotype D subtype ayw, UniProt P03146); experiment: biochemical; details: for HBV capsid assembly inhibitory activity in vitro (Supplementary Fig. 8): Cp149; for Relative intensity, anti core-native gel, individual samples: Sample1-2
T1 construct: Cp149 (amino acids 1–149) is a truncated form of the HBV core protein; made in house; host or cells: Escherichia coli

[3] = system: total HBV core protein in Huh-7 cells; type: cell-based, Hepatitis B virus; details: for total core protein: treatment time increased; for Relative Core mRNA level(Folds), individual samples: Sample1-3
Method: the indicated times. The cells were lysed and assembled HBV core particles were isolated by sucrose step-gradient ultracentrifugation, resolved on 1 % agarose gels, and subjected to immunoblot analysis with anti-HBV core antibody. Total intracellular HBV core protein was also determined by immunoblot analysis in the cell lysates. Core mRNA levels were measured by quantitative RT-PCR. The data

[4] = Sample1-3, read-out: Relative intensity (Folds), intracellular capsid, individual samples
[5] = read-out: Relative intensity (Folds), intracellular capsid, AVERAGE
[6] = Y118, 0.1 μM, Sample1-3, 0.1 µM
[7] = Y118, 0.5 μM, Sample1-3, 0.5 µM

T1 sequence (P03146 1-149): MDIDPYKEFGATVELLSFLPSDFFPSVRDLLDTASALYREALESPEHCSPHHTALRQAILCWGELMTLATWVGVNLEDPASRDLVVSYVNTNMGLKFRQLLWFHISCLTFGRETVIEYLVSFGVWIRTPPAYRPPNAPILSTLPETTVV
Sequence of HBV core protein (pCDNA3-Core, Y118 wild-type) in Huh-7 cells (P0C6H6 whole entry, the tested form may be a part): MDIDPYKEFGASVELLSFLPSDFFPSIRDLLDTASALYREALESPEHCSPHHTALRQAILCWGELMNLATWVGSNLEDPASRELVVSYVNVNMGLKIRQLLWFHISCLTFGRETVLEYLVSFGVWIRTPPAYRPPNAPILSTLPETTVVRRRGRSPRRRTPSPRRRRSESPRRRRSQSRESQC

## Cc1cc(C2CCCCC2)[nH]c(=O)c1 [Compound 2, 6-Cyclohexyl-4-methyl pyridin-2(1H)-one]
[1]; [4]
  activity at 0.1 µM: 94%
  activity at 0.5 µM: 96.4%
  activity at 1 µM: 90.2%
  activity at 5 µM: 85.6%
  activity at 10 µM: 87.2%
[1]; [5]
  activity at 0.1 µM: 96.2%
  activity at 0.5 µM: 98.6%
  activity at 1 µM: 101%
  activity at 5 µM: 95.8%
  activity at 10 µM: 99.5%
[1]
  HBV capsid assembly inhibitory activity in vivo (Fig. 3d): blocked its HBV capsid assembly inhibitory activity
[1]; [6]
  Relative intensity (Folds), intracellular capsid, individual samples: 1.008 Folds and 0.9391 Folds
[1]; [7]
  Relative intensity (Folds), intracellular capsid, individual samples: 1.032 Folds and 0.9631 Folds
[1]; Y118, 1 μM, Sample1-3, 1 µM
  Relative intensity (Folds), intracellular capsid, individual samples: 1.06 Folds and 1.081 Folds
[1]; Y118, 5 μM, Sample1-3, 5 µM
  Relative intensity (Folds), intracellular capsid, individual samples: 1.004 Folds and 1.015 Folds
[1]; Y118, 10 μM, Sample1-3, 10 µM
  Relative intensity (Folds), intracellular capsid, individual samples: 1.04 Folds and 1.071 Folds
[2]
  HBV capsid assembly inhibitory activity in vitro (Supplementary Fig. 8): blocked its HBV capsid assembly inhibitory activity
[2]; Drug Concentration 0.1 μM
  Relative intensity, anti core-native gel, AVERAGE: 0.9832
  Relative intensity, anti core-native gel, individual samples: 0.9055 and 1.061
[2]; Drug Concentration 0.2 μM
  Relative intensity, anti core-native gel, AVERAGE: 1.01
  Relative intensity, anti core-native gel, individual samples: 0.8978 and 1.1231
[2]; Drug Concentration 0.5 μM
  Relative intensity, anti core-native gel, AVERAGE: 0.9545
  Relative intensity, anti core-native gel, individual samples: 0.9595 and 0.9494
[2]; Drug Concentration 1 μM
  Relative intensity, anti core-native gel, AVERAGE: 0.9058
  Relative intensity, anti core-native gel, individual samples: 0.865 and 0.9466
[2]; Drug Concentration 2 μM
  Relative intensity, anti core-native gel, AVERAGE: 0.9815
  Relative intensity, anti core-native gel, individual samples: 0.9391 and 1.024
[2]; Drug Concentration 5 μM
  Relative intensity, anti core-native gel, AVERAGE: 0.9702
  Relative intensity, anti core-native gel, individual samples: 0.8581 and 1.082
[2]; Drug Concentration 10 μM
  Relative intensity, anti core-native gel, AVERAGE: 0.8707
  Relative intensity, anti core-native gel, individual samples: 0.8904 and 0.851

## Bay41–4109
[3]
  total core protein: decreased

## CC1(CC(=O)O)CC(C2CCCCC2)=NO1 (racemic) [(RS)-2-(3-cyclohexyl-5-methyl-4,5-dihydroisoxazol-5-yl)acetic Acid]
[2]; Drug Concentration 0.1 μM
  Relative intensity, anti core-native gel, AVERAGE: 0.9301
  Relative intensity, anti core-native gel, individual samples: 1.019 and 0.8411
[2]; Drug Concentration 0.2 μM
  Relative intensity, anti core-native gel, AVERAGE: 1.003
  Relative intensity, anti core-native gel, individual samples: 1.033 and 0.9731
[2]; Drug Concentration 0.5 μM
  Relative intensity, anti core-native gel, AVERAGE: 0.9877
  Relative intensity, anti core-native gel, individual samples: 0.9703 and 1.005
[2]; Drug Concentration 1 μM
  Relative intensity, anti core-native gel, AVERAGE: 0.9712
  Relative intensity, anti core-native gel, individual samples: 1.074 and 0.8679
[2]; Drug Concentration 2 μM
  Relative intensity, anti core-native gel, AVERAGE: 0.9867
  Relative intensity, anti core-native gel, individual samples: 1.072 and 0.9014
[2]; Drug Concentration 5 μM
  Relative intensity, anti core-native gel, AVERAGE: 0.9809
  Relative intensity, anti core-native gel, individual samples: 1.098 and 0.8634
[2]; Drug Concentration 10 μM
  Relative intensity, anti core-native gel, AVERAGE: 1.051
  Relative intensity, anti core-native gel, individual samples: 1.175 and 0.9277

## GLS-4
[2]
  Relative intensity (Folds), in vitro core assembly, individual samples: 1.0339 Folds and 1.019 Folds and 0.9819 Folds and 1.079 Folds and 1.058 Folds and 1.102 Folds and 0.3491 Folds and 0.342 Folds and 0.3462 Folds and 0.1267 Folds and 0.1171 Folds and 0.123 Folds and 0.01326 Folds and 0.01176 Folds and 0.01165 Folds and 0 Folds (6×)
[3]; 1.5day, 0.1 μM
  Relative Core mRNA level(Folds), AVERAGE: 0.9973 Folds
  Relative Core mRNA level(Folds), individual samples: 1.007 Folds and 1.003 Folds and 0.9824 Folds
[3]; 1.5day, 0.5 μM
  Relative Core mRNA level(Folds), AVERAGE: 1.0017 Folds
  Relative Core mRNA level(Folds), individual samples: 0.9742 Folds and 0.987 Folds and 1.044 Folds
[3]; 1.5day, 1 μM
  Relative Core mRNA level(Folds), AVERAGE: 0.9997 Folds
  Relative Core mRNA level(Folds), individual samples: 1.008 Folds and 0.9861 Folds and 1.005 Folds
[3]; 1.5day, 5 μM
  Relative Core mRNA level(Folds), AVERAGE: 1.008 Folds
  Relative Core mRNA level(Folds), individual samples: 1.002 Folds and 0.9963 Folds and 1.025 Folds
[3]; 1.5day, 10 μM
  Relative Core mRNA level(Folds), AVERAGE: 0.9997 Folds
  Relative Core mRNA level(Folds), individual samples: 0.9972 Folds and 0.9916 Folds and 1.01 Folds
[3]; 2.5day, 0.1 μM
  Relative Core mRNA level(Folds), AVERAGE: 0.9923 Folds
  Relative Core mRNA level(Folds), individual samples: 1.007 Folds and 0.9944 Folds and 0.976 Folds
[3]; 2.5day, 0.5 μM
  Relative Core mRNA level(Folds), AVERAGE: 0.9898 Folds
  Relative Core mRNA level(Folds), individual samples: 1 Folds and 0.9926 Folds and 0.9769 Folds
[3]; 2.5day, 1 μM
  Relative Core mRNA level(Folds), AVERAGE: 0.9998 Folds
  Relative Core mRNA level(Folds), individual samples: 1.0179 Folds and 1.005 Folds and 0.9769 Folds
[3]; 2.5day, 5 μM
  Relative Core mRNA level(Folds), AVERAGE: 0.9873 Folds
  Relative Core mRNA level(Folds), individual samples: 0.9861 Folds and 0.9889 Folds and 0.987 Folds
[3]; 2.5day, 10 μM
  Relative Core mRNA level(Folds), AVERAGE: 1.003 Folds
  Relative Core mRNA level(Folds), individual samples: 1.007 Folds and 1.001 Folds
[3]; 4.5day, 0.1 μM
  Relative Core mRNA level(Folds), AVERAGE: 0.9929 Folds
  Relative Core mRNA level(Folds), individual samples: 1.007 Folds and 0.9944 Folds and 0.9778 Folds
[3]; 4.5day, 0.5 μM
  Relative Core mRNA level(Folds), AVERAGE: 0.9886 Folds
  Relative Core mRNA level(Folds), individual samples: 1 Folds and 0.9889 Folds and 0.9769 Folds
[3]; 4.5day, 1 μM
  Relative Core mRNA level(Folds), AVERAGE: 0.9986 Folds
  Relative Core mRNA level(Folds), individual samples: 1.0179 Folds and 1.001 Folds and 0.9769 Folds
[3]; 4.5day, 5 μM
  Relative Core mRNA level(Folds), AVERAGE: 0.9904 Folds
  Relative Core mRNA level(Folds), individual samples: 0.9861 Folds and 0.9981 Folds and 0.987 Folds
[3]; 4.5day, 10 μM
  Relative Core mRNA level(Folds), AVERAGE: 0.9982 Folds
  Relative Core mRNA level(Folds), individual samples: 1.007 Folds and 0.9916 Folds and 0.9963 Folds
[3]
  total core protein: decreased

## Cc1cc(C2CCCCC2)oc(=O)c1 [Compound 3, 6-Cyclohexyl-4-methyl-2–pyrone]
[1]; [4]
  activity at 0.1 µM: 109%
  activity at 1 µM: 103%
  activity at 5 µM: 110%
[1]; [5]
  activity at 0.1 µM: 119%
  activity at 0.5 µM: 113%
  activity at 1 µM: 106%
  activity at 5 µM: 115%
  activity at 10 µM: 115%
[1]
  HBV capsid assembly inhibitory activity in vivo (Fig. 3d): blocked its HBV capsid assembly inhibitory activity
[1]; [6]
  Relative intensity (Folds), intracellular capsid, individual samples: 1.2405 Folds and 1.2516 Folds
[1]; [7]
  Relative intensity (Folds), intracellular capsid, individual samples: 0.9808 Folds and 1.196 Folds and 1.214 Folds
[1]; Y118, 1 μM, Sample1-3, 1 µM
  Relative intensity (Folds), intracellular capsid, individual samples: 1.107 Folds and 1.042 Folds
[1]; Y118, 5 μM, Sample1-3, 5 µM
  Relative intensity (Folds), intracellular capsid, individual samples: 1.192 Folds and 1.143 Folds
[1]; Y118, 10 μM, Sample1-3, 10 µM
  Relative intensity (Folds), intracellular capsid, individual samples: 0.9807 Folds and 1.199 Folds and 1.28 Folds
[2]
  HBV capsid assembly inhibitory activity in vitro (Supplementary Fig. 8): blocked its HBV capsid assembly inhibitory activity
[2]; Drug Concentration 0.1 μM
  Relative intensity, anti core-native gel, AVERAGE: 0.9537
[2]; Drug Concentration 0.1 μM, listed as 6-Cycloxexyl-4-methyl-2-pyrone
  Relative intensity, anti core-native gel, individual samples: 0.8748 and 1.033
[2]; Drug Concentration 0.2 μM
  Relative intensity, anti core-native gel, AVERAGE: 0.9345
[2]; Drug Concentration 0.2 μM, listed as 6-Cycloxexyl-4-methyl-2-pyrone
  Relative intensity, anti core-native gel, individual samples: 0.9048 and 0.9643
[2]; Drug Concentration 0.5 μM
  Relative intensity, anti core-native gel, AVERAGE: 0.8949
[2]; Drug Concentration 0.5 μM, listed as 6-Cycloxexyl-4-methyl-2-pyrone
  Relative intensity, anti core-native gel, individual samples: 0.8127 and 0.9771
[2]; Drug Concentration 1 μM
  Relative intensity, anti core-native gel, AVERAGE: 0.9182
[2]; Drug Concentration 1 μM, listed as 6-Cycloxexyl-4-methyl-2-pyrone
  Relative intensity, anti core-native gel, individual samples: 0.8468 and 0.9896
[2]; Drug Concentration 2 μM
  Relative intensity, anti core-native gel, AVERAGE: 0.8055
[2]; Drug Concentration 2 μM, listed as 6-Cycloxexyl-4-methyl-2-pyrone
  Relative intensity, anti core-native gel, individual samples: 0.798 and 0.8131
[2]; Drug Concentration 5 μM
  Relative intensity, anti core-native gel, AVERAGE: 0.9044
[2]; Drug Concentration 5 μM, listed as 6-Cycloxexyl-4-methyl-2-pyrone
  Relative intensity, anti core-native gel, individual samples: 0.8531 and 0.9558
[2]; Drug Concentration 10 μM
  Relative intensity, anti core-native gel, AVERAGE: 1.014
[2]; Drug Concentration 10 μM, listed as 6-Cycloxexyl-4-methyl-2-pyrone
  Relative intensity, anti core-native gel, individual samples: 0.9919 and 1.036

From article PMC6522524 (Nature Communications, 2019)
